# Experimental data published in patent US4157396A, “Hydroxamic acid derivatives and medicaments for treatment of urolithiasis and pyelonephrosis comprising such derivatives” (Eisai Co., Ltd., priority 1976, dated 1979).
# Read-outs that look alike come from different tables or passages of the source.
# Legend:
# [1] = target: T1, Urease collected and purified from sword beans (Canavalia gladiata) (Canavalia gladiata, UniProt A0AAN9R4W0); test: Determination of the urease inhibitory action; type: biochemical; details: read-out: 50% inhibitory concentration (M) of urease <I50>
# T1 construct: single-chain plant urease, homohexamer by analogy with jack bean urease
# T1 sequence (A0AAN9R4W0 entry or part of it): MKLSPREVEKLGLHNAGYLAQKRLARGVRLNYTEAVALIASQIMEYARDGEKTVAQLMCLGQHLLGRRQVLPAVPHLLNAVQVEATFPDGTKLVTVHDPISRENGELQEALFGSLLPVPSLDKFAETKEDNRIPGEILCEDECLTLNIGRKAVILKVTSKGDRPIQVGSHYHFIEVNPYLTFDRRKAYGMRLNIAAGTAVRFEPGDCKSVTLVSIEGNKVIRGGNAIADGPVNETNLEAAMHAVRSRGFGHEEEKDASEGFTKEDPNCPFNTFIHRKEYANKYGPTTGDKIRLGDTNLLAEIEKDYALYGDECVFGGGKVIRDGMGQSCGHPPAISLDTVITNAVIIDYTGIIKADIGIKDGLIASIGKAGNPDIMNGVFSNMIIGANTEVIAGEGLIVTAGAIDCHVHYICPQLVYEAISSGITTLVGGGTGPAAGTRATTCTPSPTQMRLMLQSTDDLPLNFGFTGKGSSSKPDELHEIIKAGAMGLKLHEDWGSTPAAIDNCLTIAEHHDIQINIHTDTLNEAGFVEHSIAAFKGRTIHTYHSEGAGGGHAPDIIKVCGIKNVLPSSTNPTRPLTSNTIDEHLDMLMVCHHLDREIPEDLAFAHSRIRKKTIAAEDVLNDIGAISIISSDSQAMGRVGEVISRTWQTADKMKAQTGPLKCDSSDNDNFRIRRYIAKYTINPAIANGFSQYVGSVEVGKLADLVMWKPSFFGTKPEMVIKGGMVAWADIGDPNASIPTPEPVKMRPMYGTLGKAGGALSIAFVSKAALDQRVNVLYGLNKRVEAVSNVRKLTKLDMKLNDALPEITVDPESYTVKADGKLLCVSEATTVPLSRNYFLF
# Experimental: (i) Determination of the urease inhibitory action
# Urease was collected and purified from sword beans (Canavalia gladiata) and mol concentrations of the examination compounds for inhibiting 50% of the activity of the urease were measured by the method of Kobashi et al [Refer to Biochim. Biophys. acta 227, 429-441 (1971)].
# Proteus mirabilis OM-1 [2] = test: Arrestment action to the calculus formation in the urine; type: cell-based; details: OM1, human urine with Proteus mirabilis OM-1, 8 hours, read-out: Arrest ratio to calculus formation (%), 8 hours; for inhibition at 200 µM: 2×10^-4 M; for inhibition at 1000 µM: 10^-3 M
# [3] = Acute toxicity: remarks on the dissection; type: in vivo, rats of SD strain
# Experimental: (§1) Eight week-old rats of SD strain (body weight: about 230 g for male and about 160 g for female) were used as the subject animals. The examination compounds were forcedly and orally administered in the following dosages, wherein 14 rats (7 male rats and 7 female rats, respectively) were used.
# The dissection was performed, for the death examples, at the time of death and, for the survivor example, after killing by discharging the blood when the observation of the general conditions was finished. The organs in the thoracic cavity and the abdominal cavity were closely observed with a macroscopic manner.
# Proteus mirabilis OM-1 [4] = test: Arrestment action to the calculus formation in the urine; type: cell-based; details: OM1, human urine with Proteus mirabilis OM-1, 24 hours, read-out: Arrest ratio to calculus formation (%), 24 hours; for inhibition at 200 µM: 2×10^-4 M; for inhibition at 1000 µM: 10^-3 M
# Experimental: (§2) Solutions to be examined were prepared by collecting each 18 ml of fresh urine from a normal human, and adding the respective examination compounds to each of the urine to make their concentration of 10^-3 M in one group, and of 2×10^-4 in the other group. On the other hand, same solutions containing no examination compounds were prepared as blanks.
# Proteus mirabilis OM-1, a urease-producing bacterium, was inoculated in said solutions, so that the number of the bacteria may amount to 10^6 cell/ml, and cultured at 37° C. After […] and 24 hours of the culture time, pH values of the solutions and amounts by weight of the formed and deposited calculus were measured. The arrestment ratio of calculus formation was calculated from said values.
# [5] = Acute toxicity (LD50), oral; details: rat, in vivo
# Source text: The examination was achieved by orally administering the examination compounds into male rats of SD strain weighing about 230 g, respectively.
# [6] = Acute toxicity: observation of the general conditions; type: in vivo
# Source text: as §1
# [7] = Examination of urine (Labstix test paper, amount, pH); type: in vivo, male SD strain rats; parameters: key to Protein in urine, hours 0-6 / Protein in urine, hours 6-24 / Glucose in urine, hours 0-6 / Glucose in urine, hours 6-24 / Ketone substances in urine, hours 0-6 / Ketone substances in urine, hours 6-24 / Occult blood in urine, hours 0-6 / Occult blood in urine, hours 6-24: (-); (±); (+); (++); (+++); details: 100 mg/Kg oral, male SD rats
# Experimental: To 5 male SD strain rats having the body weight of about 280 g in the respective groups, the examination compounds were forcedly and orally administered in a ratio of 100 mg/Kg in each time.
# Natural urinations were respectively recovered 6 hours and 6-24 hours from the administration. As for control group wherein no examination compound is administered, natural urination was similarly recovered. Amount and pH value of the recovered urine were measured. Further, qualitative reaction concerning the respective items of protein, glucose, ketone substances, and occult blood in the urine was carried out by using Labstix text paper (manufactured and sold by Ames Company). Judgement was ranked as five levels, that is, (-), (±), (+), (++) and (+++).
# [8] = Determination of the transfer rate into the urine and calculation of the index; type: in vivo, male rats of SD strain; details: rat, male SD rats, 100 mg/Kg oral, measured as urease inhibitory action in excreted urine; for dose excreted at 6 h: 0-6 hours; for dose excreted at 24 h: 6-24 hours
# Experimental: (ii) Determination of the transfer rate into the urine
# Transfer rates into the urine of the examination compounds were determined according to the method of Kobashi et al [Refer to Biochemistry (Japan) vol. 44, No. 5, pp. 187-204 (1972) and Yakugaku Zasshi vol. 12, pp. 1564-1572 (1973)] by using the male rats of SD strain having the body weight of about 280 g, administering orally each 100 mg/Kg of the compounds, and measuring the urease inhibitory action in the excreted urine within a specified period of time.
# (iii) Calculation of the index
# The index was calculated from the resulting values of the above examinations (i) and (ii) according to the following equation: [formula] wherein n is chosen appropriately depending on the value of I50.
# The value of the index is referred to as a standard of the urease inhibitory power of the administered examination compound in the urine.
# It is seen that the larger the value of the index is, the more effectively the examination compounds transfer into the urine with a form having the urease inhibitory action. Results of the determination
# Proteus mirabilis OM-1 [9] = test: Arrestment action to alkalization of the urine; type: cell-based; details: normal human urine inoculated with Proteus mirabilis OM-1, 37° C.
# Experimental: as §2
# Proteus mirabilis OM-1, a urease-producing bacterium, was inoculated in said solutions, so that the number of the bacteria may amount to 10^6 cell/ml, and cultured at 37° C. […] The arrestment ratio of calculus formation was calculated from said values.
# [10] = single forced oral dose, SD rats, 7 male and 7 female per dose
Compound,IC50 [1],inhibition at 200 µM (Proteus mirabilis OM-1 [2]),inhibition at 1000 µM (Proteus mirabilis OM-1 [2]),inhibition at 200 µM (Proteus mirabilis OM-1 [4]),inhibition at 1000 µM (Proteus mirabilis OM-1 [4]),dose excreted at 6 h [8],dose excreted at 24 h [8],"pH value, time 8 hours (Proteus mirabilis OM-1 [9]; 2×10^-4 M)","pH value, time 24 hours (Proteus mirabilis OM-1 [9]; 2×10^-4 M)","pH value, time 0 hour (Proteus mirabilis OM-1 [9]; 10^-3 M)","pH value, time 8 hours (Proteus mirabilis OM-1 [9]; 10^-3 M)","pH value, time 24 hours (Proteus mirabilis OM-1 [9]; 10^-3 M)","LD50 ([5]; oral, male SD rats about 230 g)",also measured
"COc1ccc(C(=O)NCC(=O)NO)cc1 [Compound A, 2-(para-methoxy-benzamide)-acetohydroxamic acid]",1.7e-06 M,99 ± 1%,96.2 ± 0.4%,32 ± 3.4%,76.6 ± 6%,12%,0.83%,6.56±0.02,8.38±0.02,6.40±0.00,5.40±0.003,5.58±0.05,,"Remarks on the dissection, death examples ([3]; macroscopic observation at the time of death): Erosion was observed; Remarks on the dissection, survivor example ([3]; rat, in vivo): No abnormality; LD50 ([5]; po): > 5000 mg/kg; Number of death examples, Female ([6]; rat, in vivo): 0/7; Number of death examples, Male ([6]; rat, in vivo): 1/7; Behaviour [6, 10]: No change; Symptom [6, 10]: No change; Baited amount ([6]; single forced oral dose, SD rats, all administration groups): No change; Ketone substances in urine, hours 0-6 ([7]; Labstix, 0-6 hours): -; Occult blood in urine, hours 0-6 ([7]; Labstix, 0-6 hours): -; Protein in urine, hours 0-6 ([7]; Labstix, 0-6 hours): +; Glucose in urine, hours 6-24 ([7]; Labstix, 6-24 hours): -; Ketone substances in urine, hours 6-24 ([7]; Labstix, 6-24 hours): -; Occult blood in urine, hours 6-24 ([7]; Labstix, 6-24 hours): -; Protein in urine, hours 6-24 ([7]; Labstix, 6-24 hours): ±; Glucose in urine, hours 0-6 ([7]; Labstix, first collection period): -; Amount and pH value of the urine ([7]; compared with the group given no examination compound): there was not found the difference"
"CC(=O)Nc1cccc(C(=O)NCC(=O)NO)c1 [Compound M, 2-(meta-acetylaminobenzamide)-acetohydroxamic acid]",2e-06 M,80.1 ± 6.7%,91.5 ± 5.1%,38.8 ± 8%,81.4 ± 5.6%,15%,0.6%,7.96±0.02,8.70±0.00,6.78±0.02,6.79±0.01,7.08±0.03,> 5000 mg/kg,
"O=C(CNC(=O)c1ccco1)NO [Compound R, 2-(2-furoilamino)-acetohydroxamic acid]",1.3e-06 M,85.6 ± 4.7%,84.1 ± 5.5%,28.4 ± 5.1%,72.3 ± 8.3%,15.5%,0.68%,6.65±0.02,8.52±0.01,6.46±0.00,5.42±0.01,6.98±0.02,> 5000 mg/kg,"pH value, time 0 hour (Proteus mirabilis OM-1 [9]; 2×10^-4 M): 6.44±0.01"
